Assay [1] concerns mice. The experiment in a line: Amphetamine‐induced hyperactivity test. Type of assay: in vivo. To be noted: 30 mg/kg i.p. 60 min before test, amphetamine 3 mg kg^−1 s.c., 20 min observation. On the procedure:
The tests were performed on male white mice of the Albino Swiss strain, whose weight was between 24 and 30 g in Experimental Medicine Center, Medical University of Lublin, Poland. The animals were housed (four/five per cage). Before conducting the experimental tests, the animals were subjected to an adaptation that lasted seven days. This consisted of keeping them in a room with relatively constant conditions: a temperature of 22 ± 1 °C, a humidity of 55 ± 5% and lighting that mimicked the natural day and night rhythm (12 h/12 h). Constant access to food and water was provided. Standard feed—LSM Motycz pelleted feed—and tap water were used. Mice were randomly allocated to study groups. Each group was represented by 8–10 animals, depending on the research schedule. The experiments were performed according to the procedures set out in the regulations for animal experiments: National Institute of Health Guidelines for the Care and Use of Laboratory Animals (8th edition) and to the European Community Council Directive for the Care and Use of Laboratory Animals of 22 September 2010 (2010/63/EU). The study was approved by the Local Ethical Committee in Lublin (number of ethical approvals: 27/2023). Tested compounds: FG‐1, FG‐4, FG‐5, FG‐6, FG‐7, FG‐8, and FG‐18 were finely ground in mortars with the addition of the emulsifier Tween‐80. […]

For assay [2], the system named is mice. Briefly: Novel object recognition (NOR) test. Type of assay: in vivo. To be noted: doses of 30 and 15 mg kg^−1 i.p. 60 min prior to first trial. How it is done: The tests were performed on male white mice of the Albino Swiss strain, whose weight was between 24 and 30 g in Experimental Medicine Center, Medical University of Lublin, Poland. The animals were housed (four/five per cage). Before conducting the experimental tests, the animals were subjected to an adaptation that lasted seven days. This consisted of keeping them in a room with relatively constant conditions: a temperature of 22 ± 1 °C, a humidity of 55 ± 5% and lighting that mimicked the natural day and night rhythm (12 h/12 h). Constant access to food and water was provided. Standard feed—LSM Motycz pelleted feed—and tap water were used. Mice were randomly allocated to study groups. Each group was represented by 8–10 animals, depending on the research schedule. […]
The setup for the NOR test consisted of a square, open‐ended Plexiglas box (46 cm long × 35 cm high × 33 cm wide), with a 10‐lux light source suspended 50 cm above it. […] The duration of exploration of each object at T1, T2, and T3 was manually recorded using a stopwatch. The discrimination between F and N during T2 or T3 was assessed by comparing the time spent exploring each of them. Memory performance was assessed using the DI, calculated as (N − F)/ (N + F), representing the difference in exploration time between N and F, normalized by the total exploration time for both objects. […]

For `O=C(NCCCN1CCN(c2ccccc2C2=NCCS2)CC1)c1ccccn1` [FG‐1, N‐(3‐(4‐(2‐(4,5‐dihydrothiazol‐2‐yl) phenyl) piperazin‐1‐yl) propyl) picolinamide], the “amphetamine‐induced hyperactivity” value with mice [1] is listed as “significant decrease in amphetamine‐induced hyperactivity”.

Take `O=C(NCCCN1CCN(c2ccccc2C2=NCCS2)CC1)c1ccncc1` [FG‐4, N‐(3‐(4‐(2‐(4,5‐dihydrothiazol‐2‐yl) phenyl) piperazin‐1‐yl) propyl) isonicotinamide]: the “amphetamine‐induced hyperactivity” value in the assay on mice [1] is listed as “significant decrease in amphetamine‐induced hyperactivity”. Regarding `O=C1C2C3C=CC(C3)C2C(=O)N1OCCCN1CCN(c2ccccc2C2=NCCS2)CC1` (stereo not drawn) [FG‐7, 2‐(3‐(4‐(2‐(4,5‐dihydrothiazol‐2‐yl) phenyl) piperazin‐1‐yl) propoxy)‐3a,4,7,7a‐tetrahydro‐1 H‐4,7‐methanoisoindole‐1,3(2 H)‐dione], in the assay with mice [2], the “NOR test, memory consolidation expressed by the discrimination index (DI)” value was “showed activity in the novel object recognition (NOR) test”.

(Values after article PMC12321279, “Novel 4,5‐Dihydrothiazole‐Phenylpiperazine Derivatives: Synthesis, Docking Studies and Pharmacological Evaluation as Serotonergic Agents” (Chemmedchem, 2025).)
